Data reported in patent publication US11324786B2, “Lactic acid bacteria and use thereof” (priority 2017, dated 2022).

Columns and labels:
Type in all cases: in vivo, mouse
[1] = test system: myeloperoxidase (MPO); assay: Colitis animal model: myeloperoxidase activity in colon tissue; conditions: TNBS colitis mice, oral once daily for 3 days, lactic acid bacteria 1×10^9 CFU, sulfasalazine 50 mg/kg
Protocol: 6 C57BL/6 mice (male, 21 to 23 g, 6 weeks old) formed one group which was adapted to a test room for 1 week. One group was used as a normal group, and the other group was treated with 2,4,6-trinitrobenzenesulfonic acid (TNBS) to induce colitis. Specifically, after test animals were anesthetized with ether, 0.1 ml of TNBS solution mixed with 50% ethanol was injected into the large intestine through the anus using a 1 ml syringe with a round tip, and the test animals were raised up vertically for 30 seconds to cause inflammation. Meanwhile, 0.1 ml of physiological saline was orally administered to the normal group. […] The next day when the lactic acid bacteria administration was finished, the test animal was sacrificed, and a portion of the colon from a cecum to a site immediately before the anus was removed and then a length thereof was measured. […]
200 μl of 10 mM potassium phosphate buffer (pH 7.0) containing 0.5% hexadecyl trimethyl ammonium bromide was added to 100 mg of colon tissue, and was homogenized. […] 50 μl of the supernatant was added to 0.95 ml of a reaction solution (containing 1.6 mM tetramethyl benzidine and 0.1 mM H2O2) and the absorbance was measured over time at 650 nm while reacting at 37° C. The activity of myeloperoxidase (MPO) was calculated while 1 μmol/ml of H2O2 generated as a reactant was defined as one unit.

[2] = test system: COX-2; assay: Colitis animal model: COX-2 in colon; conditions: colon tissue, TNBS colitis mice; oral once daily for 3 days; lactic acid bacteria 1×10^9 CFU, sulfasalazine 50 mg/kg
Protocol: (§1) 6 C57BL/6 mice (male, 21 to 23 g, 6 weeks old) formed one group which was adapted to a test room for 1 week. One group was used as a normal group, and the other group was treated with 2,4,6-trinitrobenzenesulfonic acid (TNBS) to induce colitis. Specifically, after test animals were anesthetized with ether, 0.1 ml of TNBS solution mixed with 50% ethanol was injected into the large intestine through the anus using a 1 ml syringe with a round tip, and the test animals were raised up vertically for 30 seconds to cause inflammation. Meanwhile, 0.1 ml of physiological saline was orally administered to the normal group. After the administration, the novel lactic acid bacterium Lactobacillus mucosae NK41, Bifidobacterium longum NK46 or a 1:1 mixture thereof was suspended in physiological saline which in turn was orally administered thereto in an amount of 1×10^9 CFU once daily for 3 days from a next day. The next day when the lactic acid bacteria administration was finished, the test animal was sacrificed, and a portion of the colon from a cecum to a site immediately before the anus was removed and then a length thereof was measured. […]
(§2) Western blotting methods were used to measure inflammatory response indicator materials, such as p-p65, p65, COX-2 and IL-17. […] Further, the expression level of cytokines thereof was measured using an ELISA kit.

[3] = test system: TNF-α; assay: Colitis animal model: TNF-α in colon; conditions: colon tissue, TNBS colitis mice; oral once daily for 3 days; lactic acid bacteria 1×10^9 CFU
Protocol: as §1, §2

[4] = test system: colitis animal model; assay: TNBS colitis animal model: weight change, colon length, toxicity; conditions: TNBS colitis mice; oral once daily for 3 days; lactic acid bacteria 1×10^9 CFU, sulfasalazine 50 mg/kg
Protocol: One group was used as a normal group, and the other group was treated with 2,4,6-trinitrobenzenesulfonic acid (TNBS) to induce colitis. Specifically, after test animals were anesthetized with ether, 0.1 ml of TNBS solution mixed with 50% ethanol was injected into the large intestine through the anus using a 1 ml syringe with a round tip, and the test animals were raised up vertically for 30 seconds to cause inflammation. Meanwhile, 0.1 ml of physiological saline was orally administered to the normal group. […] The next day when the lactic acid bacteria administration was finished, the test animal was sacrificed, and a portion of the colon from a cecum to a site immediately before the anus was removed and then a length thereof was measured. Then, various following indicators were identified based on the length. On the other hand, 1% dextrose solution as a suspension of lactic acid bacteria instead of the novel lactic acid bacteria was administered orally to the test animals in the normal group. Further, a test animal of a positive control group was orally treated with a colitis treatment drug sulfasalazine in an amount of 50 mg/kg instead of the novel lactic acid bacteria.

[5] = test system: IL-17; assay: Colitis animal model: IL-17 in colon; conditions: colon tissue, TNBS colitis mice; oral once daily for 3 days; lactic acid bacteria 1×10^9 CFU, sulfasalazine 50 mg/kg
Protocol: as §1, §2

For `O=C(O)c1cc(/N=N/c2ccc(S(=O)(=O)Nc3ccccn3)cc2)ccc1O` [Positive group, sulfasalazine], the MPO activity [1] was 0.98 μU/mg, the COX-2 activity [2] was 0.41 and the TNF-α [3] was 75 pg/mg. For the same compound, the Colon length [4] was 4.7 cm, the Weight change [4] was -0.54 g and the IL-17 [5] was 41 pg/mg.
